Test results as given in patent publication US20240116910A1, “Heterocycles as WIP1 Inhibitors” (PMV Pharmaceuticals, Inc., priority 2022, published 2024).

Biological target: recombinant His-tag Wip1(2-420) protein (amino acids #2-420) (Homo sapiens (Human), UniProt O15297)
Test: Wip1(2-420) phosphatase enzyme FDP assay
Format: biochemical
Conditions: fluorescein diphosphate (FDP) substrate, RT 2 hours, fluorescence Ex485/Em535; read-out: WIP1 (Truncated 2-420) FDP Assay: IC50

Sequence of recombinant His-tag Wip1(2-420) protein (amino acids #2-420) (O15297 2-420): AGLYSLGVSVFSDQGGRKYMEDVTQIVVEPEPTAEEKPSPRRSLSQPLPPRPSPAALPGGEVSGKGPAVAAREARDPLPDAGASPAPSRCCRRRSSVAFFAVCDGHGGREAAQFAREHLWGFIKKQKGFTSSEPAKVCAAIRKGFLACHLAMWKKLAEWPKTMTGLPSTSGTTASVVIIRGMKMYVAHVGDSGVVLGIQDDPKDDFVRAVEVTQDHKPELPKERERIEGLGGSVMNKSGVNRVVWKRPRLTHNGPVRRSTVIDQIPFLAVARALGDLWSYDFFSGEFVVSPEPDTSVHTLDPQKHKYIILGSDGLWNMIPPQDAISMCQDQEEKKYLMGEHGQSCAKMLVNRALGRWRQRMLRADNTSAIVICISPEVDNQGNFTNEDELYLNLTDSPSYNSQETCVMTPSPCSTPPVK

Row | SMILES | IC50 [nM]
1 | COCCN1CCCc2cc(NC(=O)[C@H](CC3CCCC3)NC(=O)c3ccc([C@H](C)Nc4cc(Cl)cnc4C)s3)ccc21 [Compound 129, (2S)-2-({5-[(1S)-1-[(5-chloro-2-methylpyridin-3-yl)amino]ethyl]thiophen-2-yl}formamido)-3-cyclopentyl-N-[1-(2-methoxyethyl)-1,2,3,4-tetrahydroquinolin-6-yl]propanamide] | 7
2 | Cc1ncc(Cl)cc1NC(Cc1ccncc1)c1ccc(C(=O)N[C@@H](CC2CCCC2)C(=O)NC2CC2)s1 (stereo partly drawn) [Compound 130, (2S)-2-[(5-{1-[(5-chloro-2-methylpyridin-3-yl)amino]-2-(pyridin-4-yl)ethyl}thiophen-2-yl)formamido]-3-cyclopentyl-N-cyclopropylpropanamide] | 22
3 | Cc1ncc(Cl)cc1NC(CC1CCN(C)CC1)c1ccc(C(=O)N[C@@H](CC2CCCC2)C(=O)NC2CC2)s1 (stereo partly drawn) [Compound 131, (2S)-2-[(5-{1-[(5-chloro-2-methylpyridin-3-yl)amino]-2-(1-methylpiperidin-4-yl)ethyl}thiophen-2-yl)formamido]-3-cyclopentyl-N-cyclopropylpropanamide] | 80
4 | C[C@@H](Nc1cc(Cl)cnc1C(N)=O)c1ccc(C(=O)N[C@@H](CC2CCCC2)C(=O)NC23CC(C2)C3)s1 [Compound 132, 3-{[(1R)-1-(5-{[(1S)-1-({bicyclo[1.1.1]pentan-1-yl}carbamoyl)-2-cyclopentylethyl]carbamoyl}thiophen-2-yl)ethyl]amino}-5-chloropyridine-2-carboxamide] | 76
5 | C[C@H](Nc1cc(Cl)cnc1C(N)=O)c1ccc(C(=O)N[C@@H](CC2CCCC2)C(=O)NC23CC(C2)C3)s1 [Compound 133, 3-{[(1S)-1-(5-{[(1S)-1-({bicyclo[1.1.1]pentan-1-yl}carbamoyl)-2-cyclopentylethyl]carbamoyl}thiophen-2-yl)ethyl]amino}-5-chloropyridine-2-carboxamide] | 4
6 | Cc1ncc(Cl)cc1N[C@@H](C)c1ccc(C(=O)NC(CC2CCCC2)C(=O)Nc2c[nH]nn2)s1 (stereo partly drawn) [Compound 134, 2-({5-[(1S)-1-[(5-chloro-2-methylpyridin-3-yl)amino]ethyl]thiophen-2-yl}formamido)-3-cyclopentyl-N-(1H-1,2,3-triazol-4-yl)propanamide] | 4
7 | Cc1ncc(Cl)cc1N[C@@H](C)c1ccc(C(=O)N[C@@H](CC2CCCC2)C(=O)Nc2ccnc(C(N)=O)c2)s1 [Compound 135, 4-[(2S)-2-({5-[(1S)-1-[(5-chloro-2-methylpyridin-3-yl)amino]ethyl]thiophen-2-yl}formamido)-3-cyclopentylpropanamido]pyridine-2-carboxamide] | 5
8 | C[C@H](Nc1cc(Cl)cnc1C(N)=O)c1ccc(C(=O)N[C@@H](CC2CCCC2)C(=O)Nc2cnn(C)c2)s1 [Compound 136, 5-chloro-3-{[(1S)-1-(5-{[(1S)-2-cyclopentyl-1-[(1-methyl-1H-pyrazol-4-yl)carbamoyl]ethyl]carbamoyl}thiophen-2-yl)ethyl]amino}pyridine-2-carboxamide] | 5
9 | C[C@@H](Nc1cc(Cl)cnc1C(N)=O)c1ccc(C(=O)N[C@@H](CC2CCCC2)C(=O)Nc2cnn(C)c2)s1 [Compound 137, 5-chloro-3-{[(1R)-1-(5-{[(1S)-2-cyclopentyl-1-[(1-methyl-1H-pyrazol-4-yl)carbamoyl]ethyl]carbamoyl}thiophen-2-yl)ethyl]amino}pyridine-2-carboxamide] | 54
10 | Cc1ncc(Cl)cc1N[C@@H](C)c1ccc(C(=O)N[C@@H](CC2CCCC2)C(N)=O)s1 [Compound 138, (2S)-2-({5-[(1S)-1-[(5-chloro-2-methylpyridin-3-yl)amino]ethyl]thiophen-2-yl}formamido)-3-cyclopentylpropanamide] | 19
11 | Cc1ncc(Cl)cc1N[C@@H](C)c1ccc(C(=O)N[C@@H](CC2CCCC2)C(=O)Nc2ccnc(O)c2)s1 [Compound 139, (2S)-2-({5-[(1S)-1-[(5-chloro-2-methylpyridin-3-yl)amino]ethyl]thiophen-2-yl}formamido)-3-cyclopentyl-N-(2-hydroxypyridin-4-yl)propanamide] | 5
12 | Cc1ncc(Cl)cc1N[C@@H](C)c1ccc(C(=O)N[C@H](CC2CCCC2)C(=O)Nc2ccnc(O)c2)s1 [Compound 140, (2R)-2-({5-[(1S)-1-[(5-chloro-2-methylpyridin-3-yl)amino]ethyl]thiophen-2-yl}formamido)-3-cyclopentyl-N-(2-hydroxypyridin-4-yl)propanamide] | 402
13 | Cc1ncc(Cl)cc1N[C@@H](C)c1ccc(C(=O)N[C@@H](CC2CCCC2)C(=O)Nc2cnn(CCF)c2)s1 [Compound 141, (2S)-2-({5-[(1S)-1-[(5-chloro-2-methylpyridin-3-yl)amino]ethyl]thiophen-2-yl}formamido)-3-cyclopentyl-N-[1-(2-fluoroethyl)-1H-pyrazol-4-yl]propanamide] | 5
14 | Cc1ncc(Cl)cc1N[C@@H](C)c1ccc(C(=O)N[C@H](CC2CCCC2)C(=O)Nc2ccnc(Cl)c2)s1 [Compound 142, (2R)-2-({5-[(1S)-1-[(5-chloro-2-methylpyridin-3-yl)amino]ethyl]thiophen-2-yl}formamido)-N-(2-chloropyridin-4-yl)-3-cyclopentylpropanamide] | 2500
15 | Cc1ncc(Cl)cc1N[C@@H](C)c1ccc(C(=O)N[C@@H](CC2CCCC2)C(=O)Nc2ccnc(Cl)c2)s1 [Compound 143, (2S)-2-({5-[(1S)-1-[(5-chloro-2-methylpyridin-3-yl)amino]ethyl]thiophen-2-yl}formamido)-N-(2-chloropyridin-4-yl)-3-cyclopentylpropanamide] | 5
16 | Cc1ncc(Cl)cc1N[C@@H](C)c1ccc(C(=O)N[C@@H](CC2CCCC2)C(=O)Nc2cnn(C3COC3)c2)s1 [Compound 144, (2S)-2-({5-[(1S)-1-[(5-chloro-2-methylpyridin-3-yl)amino]ethyl]thiophen-2-yl}formamido)-3-cyclopentyl-N-[1-(oxetan-3-yl)-1H-pyrazol-4-yl]propanamide] | 6
17 | Cc1cc(NC(=O)[C@@H](CCC(C)(C)C)NC(=O)c2ccc([C@H](C)Nc3cc(Cl)cnc3C)s2)ccn1 [Compound 145, (2R)-2-({5-[(1S)-1-[(5-chloro-2-methylpyridin-3-yl)amino]ethyl]thiophen-2-yl}formamido)-5,5-dimethyl-N-(2-methylpyridin-4-yl)hexanamide] | 1420
18 | CC(Nc1cc(Cl)cnc1C(N)=O)c1ccc(C(=O)N[C@@H](CC2CC3CC3C2)C(=O)Nc2cnn(C)c2)s1 (stereo partly drawn) [Compound 146, 3-{[1-(5-{[(1S)-2-{bicyclo[3.1.0]hexan-3-yl}-1-[(1-methyl-1H-pyrazol-4-yl)carbamoyl]ethyl]carbamoyl}thiophen-2-yl)ethyl]amino}-5-chloropyridine-2-carboxamide] | 15
19 | Cc1ncc(Cl)cc1N[C@@H](C)c1ccc(C(=O)N[C@@H](CC2CCCC2)C(=O)Nc2cnn(CC(F)(F)F)c2)s1 [Compound 147, (2S)-2-({5-[(1S)-1-[(5-chloro-2-methylpyridin-3-yl)amino]ethyl]thiophen-2-yl}formamido)-3-cyclopentyl-N-[1-(2,2,2-trifluoroethyl)-1H-pyrazol-4-yl]propanamide] | 6
20 | Cc1ncc(Cl)cc1N[C@@H](C)c1ccc(C(=O)N[C@@H](CC2CCCC2)C(=O)Nc2ccc3ncc(C#N)cc3c2)s1 [Compound 148, (2S)-2-({5-[(1S)-1-[(5-chloro-2-methylpyridin-3-yl)amino]ethyl]thiophen-2-yl}formamido)-N-(3-cyanoquinolin-6-yl)-3-cyclopentylpropanamide] | 6
21 | Cc1ncc(Cl)cc1N[C@@H](C)c1ccc(C(=O)N[C@@H](CC2CCCC2)C(=O)Nc2cnn(C(C)(C)C)c2)s1 [Compound 149, (2S)-N-(1-tert-butyl-1H-pyrazol-4-yl)-2-({5-[(1S)-1-[(5-chloro-2-methylpyridin-3-yl)amino]ethyl]thiophen-2-yl}formamido)-3-cyclopentylpropanamide] | 6
22 | Cc1ncc(Cl)cc1N[C@@H](C)c1ccc(C(=O)N[C@@H](CC2CCCC2)C(=O)Nc2cc(N)ccn2)s1 [Compound 150, (2S)-N-(4-aminopyridin-2-yl)-2-({5-[(1S)-1-[(5-chloro-2-methylpyridin-3-yl)amino]ethyl]thiophen-2-yl}formamido)-3-cyclopentylpropanamide] | 8
23 | Cc1ncc(Cl)cc1N[C@@H](C)c1ccc(C(=O)N[C@@H](CC2CCCC2)C(=O)Nc2cnn(CCN(C)C)c2)s1 [Compound 151, (2S)-2-({5-[(1S)-1-[(5-chloro-2-methylpyridin-3-yl)amino]ethyl]thiophen-2-yl}formamido)-3-cyclopentyl-N-{1-[2-(dimethylamino)ethyl]-1H-pyrazol-4-yl}propanamide] | 6
24 | Cc1ncc(Cl)cc1N[C@@H](C)c1ccc(C(=O)N[C@@H](CC2CCCC2)C(=O)Nc2cnn(C3CCN(C)CC3)c2)s1 [Compound 152, (2S)-2-({5-[(1S)-1-[(5-chloro-2-methylpyridin-3-yl)amino]ethyl]thiophen-2-yl}formamido)-3-cyclopentyl-N-[1-(1-methylpiperidin-4-yl)-1H-pyrazol-4-yl]propanamide] | 6
25 | Cc1ncc(Cl)cc1N[C@@H](C)c1ccc(C(=O)N[C@@H](CC2CCCC2)C(=O)Nc2ccc(C(N)=O)nc2)s1 [Compound 153, 5-[(2S)-2-({5-[(1S)-1-[(5-chloro-2-methylpyridin-3-yl)amino]ethyl]thiophen-2-yl}formamido)-3-cyclopentylpropanamido]pyridine-2-carboxamide] | 5
26 | Cc1ncc(Cl)cc1N[C@@H](C)c1ccc(C(=O)N[C@@H](CC2CCCC2)C(=O)Nc2ccn(C)n2)s1 [Compound 154, (2S)-2-({5-[(1S)-1-[(5-chloro-2-methylpyridin-3-yl)amino]ethyl]thiophen-2-yl}formamido)-3-cyclopentyl-N-(1-methyl-1H-pyrazol-3-yl)propanamide] | 10
27 | Cc1ncc(Cl)cc1N[C@@H](C)c1ccc(C(=O)N[C@@H](CC2CCCC2)C(=O)Nc2cc[nH]n2)s1 [Compound 155, (2S)-2-({5-[(1S)-1-[(5-chloro-2-methylpyridin-3-yl)amino]ethyl]thiophen-2-yl}formamido)-3-cyclopentyl-N-(1H-pyrazol-3-yl)propanamide] | 7
